# Test results reported in US7566712B2, “Biaryl piperazinyl-pyridine analogues” (Neurogen Corporation, priority 2003, dated 2009).
# pIC50: −log10 of the molar value.
# Biological target: T1, human capsaicin receptor (Homo sapiens, UniProt Q8NER1)
# T1 construct: pBK-CMV expression construct encoding the full length human capsaicin receptor; expressed in transfected cells
# Assay: Calcium mobilization assay, determination of antagonist activity (Example 6)
# Format: cell-based
# Settings: Table II
# Outline: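 Antagonism measured as inhibition of capsaicin-evoked (final concentration = EC50, from an 8-point 1 nM–3 μM curve) Fluo-3 calcium signal in stable hVR1-HEK293 cells. Test compounds at 1–5 μM final, 0.5–6 h dark preincubation at room temperature. IC50 = concentration giving 50% reduction versus agonist-only response.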
# [1] = determined as described in Example 6 (calcium mobilization, antagonist activity)
# [2] = IC50 determined as described in Example 6
# [3] = determined as described in Example 6 (antagonist activity), "*" = 1 micromolar or less
# T1 sequence (Q8NER1 whole entry): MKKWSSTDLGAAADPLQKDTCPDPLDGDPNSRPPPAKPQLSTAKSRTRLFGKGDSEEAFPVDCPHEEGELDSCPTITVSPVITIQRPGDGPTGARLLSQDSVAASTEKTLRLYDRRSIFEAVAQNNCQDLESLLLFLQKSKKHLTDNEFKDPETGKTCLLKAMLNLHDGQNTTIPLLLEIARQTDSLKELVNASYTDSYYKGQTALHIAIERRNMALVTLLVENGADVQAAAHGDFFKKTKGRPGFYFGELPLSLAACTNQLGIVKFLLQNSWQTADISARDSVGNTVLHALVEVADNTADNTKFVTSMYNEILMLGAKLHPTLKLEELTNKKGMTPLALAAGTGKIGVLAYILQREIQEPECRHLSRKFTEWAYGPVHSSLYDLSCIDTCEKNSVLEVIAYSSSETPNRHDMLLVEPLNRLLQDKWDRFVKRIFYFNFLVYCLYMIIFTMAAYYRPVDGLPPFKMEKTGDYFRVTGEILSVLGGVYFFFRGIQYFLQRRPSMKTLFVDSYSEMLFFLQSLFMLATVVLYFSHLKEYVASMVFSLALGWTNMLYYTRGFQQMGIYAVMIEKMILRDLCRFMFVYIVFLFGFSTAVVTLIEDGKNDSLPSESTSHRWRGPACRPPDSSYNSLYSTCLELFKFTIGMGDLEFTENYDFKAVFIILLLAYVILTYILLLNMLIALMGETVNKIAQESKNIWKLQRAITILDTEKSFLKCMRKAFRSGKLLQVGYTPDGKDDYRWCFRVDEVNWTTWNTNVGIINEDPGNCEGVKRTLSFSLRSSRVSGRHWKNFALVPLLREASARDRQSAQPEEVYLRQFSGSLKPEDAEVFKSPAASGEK
pIC50 [1],pIC50 [3],SMILES,further results
≥ 6.00,–,"CCN(CC)c1nc(-c2ccc(F)c(Cl)c2)cc(N2CCN(c3ncccc3Cl)CC2)n1 [Example 724, 4-(3-chloro-4-fluorophenyl)-6-[4-(3-chloropyridin-2-yl)piperazin-1-yl]-N,N-diethylpyrimidin-2-amine]",–
–,–,"Cc1ccnnc1N1CCN(c2cc(-c3ccc(F)c(Cl)c3)nc(N3CCCC3C)n2)CC1 (stereo not shown) [Example 1001, 3-{4-[6-(3-ohloro-4-fluorophenyl)-2-(2-methylpyrrolidin-1-yl)pyrimidin-4-yl]piperazin-1-yl}-4-methylpyridazine]","pIC50 (IC50 determined as described in Example 6 (antagonist activity, calcium mobilization)): ≥ 6.00"
≥ 6.00,–,"CCN1CCN(c2nc(-c3ccc(F)c(C)c3)cc(N3CCN(c4ncccc4C(F)(F)F)CC3)n2)CC1 [Example 667, 2-(4-ethylpiperazin-1-yl)-4-(4-fluoro-3-methylphenyl)-6-{4-[3-(trifluoromethyl)pyridin-2-yl]piperazin-1-yl}pyrimidine]",–
–,–,"COc1ccc(-c2cc(N3CCN(c4ncccc4C)C[C@H]3C)nc(N3CCOCC3)n2)cc1F [Example 540, 4-{4-(3-fluoro-4-methoxyphenyl)-6-[(2R)-2-methyl-4-(3-methylpyridin-2-yl)piperazin-1-yl]pyrimidin-2-yl}morpholine]",pIC50 [2]: ≥ 6.00
–,≥ 6.00,"Fc1ccc(-c2cc(N3CCN(c4ncccc4C(F)(F)F)CC3)nc(N3CCN4CCC[C@H]4C3)n2)cc1Cl [Example 891, (8aS)-2-(4-(3-chloro-4-fluorophenyl)-6-{4-[3-(trifluoromethyl)pyridin-2-yl]piperazin-1-yl}pyrimidin-2-yl)octahydropyrrolo[1,2-a]pyrazine]",–
–,≥ 6.00,"CC(=O)c1nc(-c2ccc(F)c(C(C)=O)c2)cc(N2CCN(c3ncccc3C(F)(F)F)CC2)n1 [Example 846, 1-(4-(3-acetyl-4-fluorophenyl)-6-{4-[3-(trifluoromethyl)pyridin-2-yl]piperazin-1-yl}pyrimidin-2-yl)ethanone]",–
≥ 6.00,–,"CCN(CC)c1nc(-c2ccc(F)c(C)c2)cc(N2CCN(c3ncccc3C(F)(F)F)CC2)n1 [Example 594, N,N-diethyl-4-(4-fluoro-3-methylphenyl)-6-{4-[3-(trifluoromethyl)pyridin-2-yl]piperazin-1-yl}pyrimidin-2-amine]",–
–,≥ 6.00,"C[C@@H]1CCCN1c1cc(-c2ccc(Cl)c(F)c2)nc(N2CCN(c3ncccc3Cl)C[C@@H]2C)n1 [Example 960, 4-(4-chloro-3-fluorophenyl)-2-[(2S)-4-(3-chloropyridin-2-yl)-2-methylpiperazin-1-yl]-6-[(2R)-2-methylpyrrolidin-1-yl]pyrimidine]",–
–,≥ 6.00,"C[C@@H]1CN(c2ncccc2Cl)CCN1c1cc(-c2cccc(C#N)c2)nc(N2CCOCC2)n1 (stereo in doubt) [Example 870, 3-{6-[4-(3-chloropyridin-2-yl)-2-methylpiperazin-1-yl]-2-morpholin-4-ylpyrimidin-4-yl}benzonitrile]",–
–,≥ 6.00,"FC(F)(F)c1cccnc1N1CCN(c2cc(-c3cccc(Cl)c3)nc(N3CCN4CCC[C@H]4C3)n2)CC1 [Example 892, (8aS)-2-(4-(3-chlorophenyl)-6-{4-[3-(trifluoromethyl)pyridin-2-yl]piperazin-1-yl}pyrimidin-2-yl)octahydropyrrolo[1,2-a]pyrazine]",–
–,≥ 6.00,"C[C@H]1CN(c2ncccc2Cl)CCN1c1cc(-c2ccc(F)c(F)c2)nc(N2CCCC2)n1 [Example 921, 4-[(2S)-4-(3-chloropyridin-2-yl)-2-methylpiperazin-1-yl]-6-(3,4-difluorophenyl)-2-pyrrolidin-1-ylpyrimidine]",–
–,–,"CN(CCO)c1nc(-c2ccc(F)c(Cl)c2)cc(N2CCN(c3ncccc3C(F)(F)F)CC2)n1 [Example 549, 2-[(4-(3-chloro-4-fluorophenyl)-6-{4-[3-(trifluoromethyl)pyridin-2-yl]piperazin-1-yl}pyrimidin-2-yl)(methyl)amino]ethanol]",pIC50 [2]: ≥ 6.00
≥ 6.00,–,"COC[C@H]1CCCN1c1nc(-c2ccc(F)c(C)c2)cc(N2CCN(c3ncccc3C(F)(F)F)C[C@H]2C)n1 [Example 761, 4-(4-fluoro-3-methylphenyl)-2-[(2R)-2-(methoxymethyl)pyrrolidin-1-yl]-6-{(2R)-2-methyl-4-[3-(trifluoromethyl)pyridin-2-yl]piperazin-1-yl}pyrimidine]",–
–,≥ 6.00,"Cc1cccnc1N1CCN(c2cc(-c3ccc(F)c(Cl)c3)nc(N3CCOCC3)n2)[C@H](C)C1 [Example 852, 4-{4-(3-chloro-4-fluorophenyl)-6-[(2R)-2-methyl-4-(3-methylpyridin-2-yl)piperazin-1-yl]pyrimidin-2-yl}morpholine]",–
≥ 6.00,–,"Fc1ccc(-c2cc(N3CCN(c4ncccc4C(F)(F)F)CC3)nc(-c3ncc[nH]3)n2)cc1Cl [Example 656, 4-(3-chloro-4-fluorophenyl)-2-(1H-imidazol-2-yl)-6-{4-[3-(trifluoromethyl)pyridin-2-yl]piperazin-1-yl}pyrimidine]",–
≥ 6.00,–,"Cc1cccnc1N1CCN(c2cc(-c3ccc(F)c(Cl)c3)nc(N3CCOCC3)n2)CC1 [Example 585, 4-{4-(3-chloro-4-fluorophenyl)-6-[4-(3-methylpyridin-2-yl)piperazin-1-yl]pyrimidin-2-yl}morpholine]",–

pIC50 [1],pIC50 [3],SMILES,further results
–,≥ 6.00,"C[C@@H]1CN(c2ccncc2Cl)CCN1c1cc(-c2ccc(F)c(F)c2)nc(N2CCCC2)n1 [Example 829, 4-[(2R)-4-(3-chloropyridin-4-yl)-2-methylpiperazin-1-yl]-6-(3,4-difluorophenyl)-2-pyrrolidin-1-ylpyrimidine]",–
≥ 6.00,–,"OCCN1CCN(c2nc(-c3ccc(F)c(Cl)c3)cc(N3CCN(c4ncccc4C(F)(F)F)CC3)n2)CC1 [Example 750, 2-[4-(4-(3-chloro-4-fluorophenyl)-6-{4-[3-(trifluoromethyl)pyridin-2-yl]piperazin-1-yl}pyrimidin-2-yl)piperazin-1-yl]ethanol]",–
–,–,"Cc1ccc(-c2cc(N3CCN(c4ncccc4Cl)C[C@H]3C)nc(N3CCOCC3)n2)cc1C [Example 508, 4-[4-[(2R)-4-(3-chloropyridin-2-yl)-2-methylpiperazin-1-yl]-6-(3,4-dimethylphenyl)pyrimidin-2-yl]morpholine]",pIC50 [2]: ≥ 6.00
–,≥ 6.00,"C[C@@H]1CN(c2ncccc2C(F)(F)F)CCN1c1cc(-c2ccc(F)cc2)nc(N2CCCCC2)n1 [Example 784, 4-(4-fluorophenyl)-6-{(2R)-2-methyl-4-[3-(trifluoromethyl)pyridin-2-yl]piperazin-1-yl}-2-piperidin-1-ylpyrimidine]",–
≥ 6.00,–,"Nc1cccc(-c2cc(N3CCN(c4ncccc4C(F)(F)F)CC3)nc(N3CCOCC3)n2)c1 [Example 589, 3-(2-morpholin-4-yl-6-{4-[3-(trifluoromethyl)pyridin-2-yl]piperazin-1-yl}pyrimidin-4-yl)phenylamine]",–
≥ 6.00,–,"Cc1cc(-c2cc(N3CCN(c4ncccc4C(F)(F)F)CC3)nc(N3CCCCC3C)n2)ccc1F (stereo not shown) [Example 642, 4-(4-fluoro-3-methylphenyl)-2-(2-methylpiperidin-1-yl)-6-{4-[3-(trifluoromethyl)pyridin-2-yl]piperazin-1-yl}pyrimidine]",–
–,≥ 6.00,"C[C@@H]1CN(c2ncccc2Cl)CCN1c1cc(-c2cccc(C#N)c2)nc(N2CCCC2)n1 [Example 868, 3-{6-[(2R)-4-(3-chloropyridin-2-yl)-2-methylpiperazin-1-yl]-2-pyrrolidin-1-ylpyrimidin-4-yl}benzonitrile]",–
≥ 6.00,–,"C[C@@H]1CN(c2nc(-c3ccc(F)c(Cl)c3)cc(N3CCN(c4ncccc4C(F)(F)F)CC3)n2)[C@@H](C)CN1 [Example 627, 4-(3-chloro-4-fluorophenyl)-2-[(2S,5R)-2,5-dimethylpiperazin-1-yl]-6-{4-[3-(trifluoromethyl)pyridin-2-yl]piperazin-1-yl}pyrimidine]",–
–,≥ 6.00,"[O-][n+]1ccc(-c2nc(-c3ccc(F)c(Cl)c3)cc(N3CCN(c4ncccc4C(F)(F)F)CC3)n2)cc1 [Example 813, 4-(3-chloro-4-fluorophenyl)-2-(1-oxidopyridin-4-yl)-6-{4-[3-(trifluoromethyl)pyridin-2-yl]piperazin-1-nlyl}pyrimidine]",–
≥ 6.00,–,"Cc1cccnc1N1CCN(c2cc(-c3ccc(F)c(F)c3)nc(N3CCCC3C)n2)CC1 (stereo not shown) [Example 703, 4-(3,4-difluorophenyl)-6-[4-(3-methylpyridin-2-yl)piperazin-1-yl]-2-(2-methylpyrrolidin-1-yl)pyrimidine]",–
–,–,"FC(F)(F)c1ccc(-c2nc(N3CCOCC3)nc(N3CCN(c4ncccc4C(F)(F)F)CC3)n2)cc1 [Example 437, 2-morpholin-4-yl-4-[4-(trifluoromethyl)phenyl]-6-{4-[3-(trifluoromethyl)pyridin-2-yl]piperazin-1-yl}-1,3,5-triazine]",pIC50 [2]: ≥ 6.00
–,≥ 6.00,"COC[C@@H]1CCCN1c1nc(-c2cncc(Cl)c2)cc(N2CCN(c3ncccc3Cl)C[C@H]2C)n1 [Example 854, 4-(5-chloropyridin-3-yl)-6-[(2R)-4-(3-chloropyridin-2-yl)-2-methylpiperazin-1-yl]-2-[(2S)-2-(methoxymethyl)pyrrolidin-1-yl]pyrimidine]",–
≥ 6.00,–,"CC1CN(c2cc(-c3ccc(F)c(Cl)c3)nc(N3CCOCC3)n2)CCN1c1ccccn1 (stereo not shown) [Example 632, 4-[4-(3-chloro-4-fluorophenyl)-6-(3-methyl-4-pyridin-2-ylpiperazin-1-yl)pyrimidin-2-yl]morpholine]",–
≥ 6.00,–,"CCN(CC)c1nc(-c2ccc(F)c(Cl)c2)cc(N2CCN(c3ncccc3C(F)(F)F)CC2)n1 [Example 573, 4-(3-chloro-4-fluorophenyl)-N,N-diethyl-6-{4-[3-(trifluoromethyl)pyridin-2-yl]piperazin-1-yl}pyrimidin-2-amine]",–
≥ 6.00,–,"Cc1cc(-c2cc(N3CCN(c4ncccc4C(F)(F)F)CC3)nc(N(C)C3CC3)n2)ccc1F [Example 736, N-cyclopropyl-4-(4-fluoro-3-methylphenyl)-N-methyl-6-{4-[3-(trifluoromethyl)pyridin-2-yl]piperazin-1-yl}pyrimidin-2-amine]",–
